Measurements taken from US20210046160A1 (Synthorx, Inc., priority 2019, published 2021).

Columns and labels:
Treg cells = experiment: pSTAT5 concentration-response in human LRS-derived PBMC samples (flow cytometry): Treg cells; assay type: cell-based; details: ratio of pSTAT5 EC50 values; for CD8+/Treg ratio: Table 12; for CD8/Treg ratio: Table 4
Description: These studies were performed at PrimityBio LLC (Fremont, Calif.). […] Staining panel for flow cytometry study of LRS-derived PBMC samples include markers for Effector T cells (Teff: CD3+, CD4+, CD8+, CD127+), NK cells (CD3-, CD16+), and Regulatory T cells (Treg: CD3+, CD4+, CD8-, IL-2Rα+, CD127-1).
The EC50 values (pg/mL) was calculated from dose response curves generated from MFI plots.
These studies were performed at PrimityBio LLC (Fremont, Calif.). […] Staining panel for flow cytometry study of LRS-derived PBMC samples include markers CD4, CD4+ memory central, CD4+ memory effect, CD4+ memory T cells, CD4+ Naive T cells, CD4+ T cells, CD8, CD8+ memory central, CD8+ memory effect, CD8+ memory T cells, CD8+ Naive T cells, CD8+ T cells, NK cells, and T regulatory cells.
Conjugates of Table 12 were synthesized by modification of SEQ NO. 1. These studies were performed at PrimityBio LLC (Fremont, Calif.).
The EC50 values (pg/ml) were calculated from dose response curves generated from the MFI plots.

CTLL-2 = CTLL-2 proliferation; assay type: cell-based
[1] = PK study E3826-U1704 in naïve C57BL/6 mice (human IL-2 ELISA of plasma); assay type: in vivo; details: for AUC0-t / AUCINF / CL / Cmax / Tmax / Vss (distribution volume) / t½: C57BL/6 female mice, single IV bolus 0.3 mg/kg, E62_5 kD from a separate study; for mean plasma concentrations measurable out to (post-dose): single IV bolus, 120 h = last measured time point
Description: Terminal blood samples were collected via cardiac puncture at the points indicated. […] Plasma and blood cells (in both studies) and tumors in study E3826-U1803 were collected for PK and PD analyses.
Bioanalysis of plasma samples was performed using a qualified human IL-2 ELISA assay (Abcam, Cambridge, UK). Concentrations of Aldesleukin, E62_30kD and P65_30kD and the internal standard in samples derived from plasma were determined using an ELISA assay. […] The PK data were imported into Phoenix WinNonlin v6.4 (Certara/Pharsight, Princeton, N.J.) for analysis. The group mean plasma concentration versus time data were analyzed with noncompartmental methods using an IV bolus administration model.

[2] = PK study of K35_30kD in C57BL/6 mice (Example 8); assay type: in vivo; details: male C57BL/6 mice
Description: The lyophilized test article was reconstituted in PBS, and nine male C57BL/6 mice were dosed with 0.3 and 3 mg/kg via intravenous tail vein injection for each dose group (see collection details below). Blood samples were collected at 0.08, 0.25, 0.5, 1, 2, 4, 8, 12, and 24 hours post dose. […] To adjust for ELISA-specific differences in sensitivity of kit detection of native and PEGylated compounds, native IL-2 and K35_30kD test article standard curves were generated using the test article diluent buffer, and data were analyzed with respect to respective standard curves. The data plotted represent the mean and SEM of three individual samples (biological replicates) as described above, and PK parameters for K35_30 kD test articles were extracted and summarized in Table 14.

Substance: D20_30kD: 30 kD PEGylated IL-2 conjugate at D20, made by modification of SEQ NO. 1 [Compound D20_30kD]
- CD8+/Treg ratio (Treg cells): 8
- EC50, CTLL-2 proliferation (CTLL-2; Table 12): 689939 pg/mL

Substance: E62K: IL-2 variant with residue substitution E62K, not PEGylated [Compound E62K]
- CD8/Treg ratio (Treg cells): 5.8
- EC50, CTLL-2 proliferation (CTLL-2; Table 4): 58,213 pg/mL

Substance: E62_5kD: SEQ ID NO: 21: IL-2 (SEQ ID NO: 4) with E62 replaced by AzK conjugated to methoxy linear 5 kDa PEG [Compound E62_5kD]
- CD8/Treg ratio (Treg cells): 2.3
- EC50, CTLL-2 proliferation (CTLL-2; Table 4): 275,590 pg/mL
- AUC0-t [1]: 798 ng·h/mL
- AUCINF [1]: 807 ng·h/mL
- CL [1]: 6.2 mL/min/kg
- Cmax [1]: 936 ng/mL
- Tmax [1]: 7.98 min
- Vss (distribution volume) [1]: 0.404 L/kg
- t½ [1]: 2.56 h
- mean plasma concentrations measurable out to (post-dose) [1]: 12 h

Substance: E62_30kD: SEQ ID NO: 26: IL-2 (SEQ ID NO: 4) with E62 replaced by AzK conjugated to methoxy linear 30 kDa PEG [Compound E62_30kD]
- CD8/Treg ratio (Treg cells): 1.8
- EC50, CTLL-2 proliferation (CTLL-2; Table 4): 398,012 pg/mL
- AUC0-t [1]: 37,100 h*ng/mL
- AUCINF [1]: 37,100 h*ng/mL
- CL [1]: 0.134 mL/min/kg
- Cmax [1]: 4,230 ng/mL
- Tmax [1]: 1.8 min
- Vss (distribution volume) [1]: 0.0923 L/kg
- t½ [1]: 14.500 h
- mean plasma concentrations measurable out to (post-dose) [1]: 120 h

Substance: E100_30kD: 30 kD PEGylated IL-2 conjugate at E100, made by modification of SEQ NO. 1 [Compound E100_30kD]
- CD8+/Treg ratio (Treg cells): 405
- EC50, CTLL-2 proliferation (CTLL-2; Table 12): 1676 pg/mL

Substance: H16_30kD: 30 kD PEGylated IL-2 conjugate at H16, made by modification of SEQ NO. 1 [Compound H16_30kD]
- CD8+/Treg ratio (Treg cells): 345
- EC50, CTLL-2 proliferation (CTLL-2; Table 12): 80755 pg/mL

Substance: K9_30kD: 30 kD PEGylated IL-2 conjugate at K9, made by modification of SEQ NO. 1 [Compound K9_30kD]
- CD8+/Treg ratio (Treg cells): 496
- EC50, CTLL-2 proliferation (CTLL-2; Table 12): 504 pg/mL

Substance: K35_30kD: SEQ ID NO: 29: IL-2 (SEQ ID NO: 4) with K35 replaced by AzK conjugated to methoxy linear 30 kDa PEG [Compound K35_30kD]
- CD8/Treg ratio (Treg cells): 176.0
- AUC1/2extrap ([2]; 0.3 mg/kg single IV): 35.3%
- AUCo-t/D ([2]; 0.3 mg/kg single IV): 128000 ng·h/mL
- AUG0-∞ ([2]; 0.3 mg/kg single IV): 59600 ng·h/mL
- Cmax ([2]; 0.3 mg/kg single IV): 6080 ng/mL
- Cmax/D ([2]; 0.3 mg/kg single IV): 20300 kg·ng/mL/mg
- Tmax ([2]; 0.3 mg/kg single IV): 0.250 h
- t1/2 ([2]; 0.3 mg/kg single IV): 18.2 h
- AUC1/2extrap ([2]; 3 mg/kg single IV): 37.4%
- AUCo-t/D ([2]; 3 mg/kg single IV): 142000 ng·h/mL
- AUG0-∞ ([2]; 3 mg/kg single IV): 679000 ng·h/mL
- Cmax ([2]; 3 mg/kg single IV): 57700 ng/mL
- Cmax/D ([2]; 3 mg/kg single IV): 19200 kg·ng/mL/mg
- Tmax ([2]; 3 mg/kg single IV): 0.250 h
- t1/2 ([2]; 3 mg/kg single IV): 19.5 h

Substance: L19_30kD: 30 kD PEGylated IL-2 conjugate at L19, made by modification of SEQ NO. 1 [Compound L19_30kD]
- CD8+/Treg ratio (Treg cells): 241
- EC50, CTLL-2 proliferation (CTLL-2; Table 12): 3510 pg/mL

Substance: M23_30kD: 30 kD PEGylated IL-2 conjugate at M23, made by modification of SEQ NO. 1 [Compound M23_30kD]
- CD8+/Treg ratio (Treg cells): 524
- EC50, CTLL-2 proliferation (CTLL-2; Table 12): 1102 pg/mL

Substance: N26_30kD: 30 kD PEGylated IL-2 conjugate at N26, made by modification of SEQ NO. 1 [Compound N26_30kD]
- CD8+/Treg ratio (Treg cells): 483
- EC50, CTLL-2 proliferation (CTLL-2; Table 12): 2594 pg/mL

Substance: N88R/D109_30kD: IL-2 variant N88R with 30 kD PEG at D109, made by modification of SEQ NO. 1
- CD8+/Treg ratio (Treg cells): 71
- EC50, CTLL-2 proliferation (CTLL-2; Table 12): 59577 pg/mL

Substance: N88R: IL-2 variant with substitution N88R [Compound N88R]
- CD8+/Treg ratio (Treg cells): 1356
- EC50, CTLL-2 proliferation (CTLL-2; Table 12): 363 pg/mL

Substance: N88_30kD: 30 kD PEGylated IL-2 conjugate at N88, made by modification of SEQ NO. 1 [Compound N88_30kD]
- CD8+/Treg ratio (Treg cells): 34
- EC50, CTLL-2 proliferation (CTLL-2; Table 12): 66606 pg/mL

Substance: N119_30kD: 30 kD PEGylated IL-2 conjugate at N119, made by modification of SEQ NO. 1 [Compound N119_30kD]
- CD8+/Treg ratio (Treg cells): 268
- EC50, CTLL-2 proliferation (CTLL-2; Table 12): 1215 pg/mL

Substance: P65_5kD: SEQ ID NO: 20: IL-2 (SEQ ID NO: 4) with P65 replaced by AzK conjugated to methoxy linear 5 kDa PEG [Compound P65_5kD]
- CD8/Treg ratio (Treg cells): 2.2
- EC50, CTLL-2 proliferation (CTLL-2; Table 4): 194,924 pg/mL

Substance: Q126_30kD: 30 kD PEGylated IL-2 conjugate at Q126, made by modification of SEQ NO. 1 [Compound Q126_30kD]
- CD8+/Treg ratio (Treg cells): 670
- EC50, CTLL-2 proliferation (CTLL-2; Table 12): 3584 pg/mL

Substance: S127_30kD: 30 kD PEGylated IL-2 conjugate at S127, made by modification of SEQ NO. 1 [Compound S127_30kD]
- CD8+/Treg ratio (Treg cells): 615
- EC50, CTLL-2 proliferation (CTLL-2; Table 12): 123 pg/mL

Substance: T123_30kD: 30 kD PEGylated IL-2 conjugate at T123, made by modification of SEQ NO. 1 [Compound T123_30kD]
- CD8+/Treg ratio (Treg cells): 569
- EC50, CTLL-2 proliferation (CTLL-2; Table 12): 255 pg/mL

Substance: T131_30kD: 30 kD PEGylated IL-2 conjugate at T131, made by modification of SEQ NO. 1 [Compound T131_30kD]
- CD8+/Treg ratio (Treg cells): 515
- EC50, CTLL-2 proliferation (CTLL-2; Table 12): 641 pg/mL

Substance: V91K: IL-2 variant with substitution V91K [Compound V91K]
- CD8+/Treg ratio (Treg cells): 720
- EC50, CTLL-2 proliferation (CTLL-2; Table 12): 99.5 pg/mL
